Where “and” joins values, the source holds several entries; their conditions need not be identical. Equal values may be shown once. Where only a bound is given, the exact number is not on record here.

Results on seven compounds are retold here after PMC12592420, “A mismatch in enzyme-redox partnerships underlies divergent cytochrome P450 activities between human hepatocytes and microsomes” (Communications Biology, 2025).

Data set [1] is described as follows: Intrinsic permeability in Caco-2 cells with efflux inhibited. The conditions noted are these: human, Caco-2. (In general: Caco-2 monolayers are a common model of the intestinal barrier.)
Data set [2] is described as follows: in vitro. Particulars: human, hepatocytes; for hepatocyte CLint at 1 µM / hepatocyte CLint: both. The procedure: (§1) Cryopreserved HH prepared from a mixed-gender pool of twenty donors (product X008000, lot EEO, BIOIVT), ten-donors (product S01205, lot MTJ, BIOIVT), ten donors (product S01205 lot LYB, BIOIVT) were utilised in the experiments. Cryopreserved HH were rapidly thawed in a water bath set at 37 °C and added to Leibovitz media that had been pre-warmed in the water bath. The suspension of cells was mixed gently and centrifuged at 40 × g for 4 min at room temperature. Excess media was removed, and the cells were re-suspended in 5 mL of fresh Leibovitz media. The cells were counted using an automated cell counter (Cellometer).

The nature of data set [3]: LogD pH 7.4, octanol/phosphate buffer. The conditions noted are these: for logD: octanol/phosphate buffer, pH 7.4.
The nature of data set [4]: Free fraction in HLM incubation, equilibrium dialysis. Particulars: fraction unbound, measured or estimated by in silico models of Fuinc. It counts as in vitro ADME, human.
Data set [5] can be described thus: CLint in NADPH-supplemented human liver microsomes. The conditions noted are these: for microsomal CLint at 1 µM / CLint scaled at 1 µM: human. Here is the method:
(§2) Calculation and scaling of CLint,u was done using the equation below and 45 mg of microsomal protein per gram of liver. HLMCLint,u=ln2/x1/t1/2(min)xmLincubation/mgmicrosomalproteinx45mgmicrosomalprotein/gliverx21gliver/kg/Fuinc
(In general: Liver microsomes are a subcellular fraction often used to study metabolism.)

The next data set relates to rat hepatocytes. In words: Free fraction in rat hepatocytes as surrogate for HH, equilibrium dialysis. The format is in vitro ADME. The conditions noted are these: fraction unbound, measured or estimated by in silico models of Fuinc.
A short description of data set [6]: CLint in NADH-supplemented human liver microsomes. Particulars: human. Here is the method:
as §2

In a further data set the test system is Caco-2 cells. In words: Intrinsic permeability in Caco-2 cells with efflux inhibited. The conditions noted are these: intrinsic (passive) permeability, at least one determination.
The test system of another data set is human hepatocytes (HH). In words: in vitro. The procedure: as §1
Data set [7] can be described thus: in vitro. The conditions noted are these: human, Caco-2.
Setting [8] is: human liver microsomes + NADPH, pH 7.4.
[9] abbreviates: human liver microsomes, pH 7.4, NADPH_HLM_scaled_CLint,u, Fig. 4a,d.
The mark [10] stands for this setting: human liver microsomes + NADH, pH 7.4.
The mark [11] stands for this setting: microsomes, pH 7.4, NADPH_HLM_scaled_CLint,u, Fig. 4a,d.

By Papp is commonly meant the rate of passage across a membrane or cell layer, normalised by area and donor concentration. Read a high Papp as ready permeation. In general, hepatocyte CLint refers to the capacity of the preparation to metabolise the compound, expressed as a volume cleared per time. A high value points to rapid turnover. One may read the CLint scaled as the capacity of the preparation to metabolise the compound, expressed as a volume cleared per time. Usually logD stands for lipophilicity at a set pH, counting ionised and neutral species. As a reminder, the microsomal CLint is the rate of metabolic loss divided by the concentration. Take `CN(C)CCCOc1nn(Cc2ccccc2)c2ccccc12` [Benzydamine]: in data set [1], the Papp at 2 h, 10 µM was found to be 27.4 ×10⁻⁶ cm/s. The same compound had a hepatocyte CLint at 1 µM in “in vitro [2]” of 6.69 µL/min/1e6 cells. In addition, the CLint scaled at 1 µM in the data set “in vitro [2]” (HH_scaled_CLint,u) was determined as 26.2 mL/min/kg; in data set [5] (setting [9]) it was 56 mL/min/kg; in data set [6] (human liver microsomes, pH 7.4), 7.96 mL/min/kg. In addition, in data set [3], the logD was 2.25. The fu_HLM in data set [4] was 0.356. Also, the values for the microsomal CLint at 1 µM in data set [5] (setting [8]) and in data set [6] (setting [10]) were 21.1 µL/min/mg and 3 µL/min/mg, respectively. The fu_ratHH in the data set on rat hepatocytes is given as 0.643.

On to `CCN(C(=O)c1cc(F)ccc1Oc1nncnc1N1CCC2(C1)CN([C@H](CCCN(C)CCOC)C(C)C)C2)C(C)C` [Bleximenib], for which the “Caco-2 Papp” value with Caco-2 cells was 0.575 10-6 cm/s. Also, in the data set with human hepatocytes (HH) (1 µM, single determination, Fig. 4a), the HH_CLint turned out to be 1.166 uL/min/106 cells. Moreover, in the data set with human hepatocytes (HH) (Fig. 4a), the “HH_scaled_CLint,u” value is 3.701 mL/min/kg. Moreover, the “LogD pH 7.4” value in data set [3] (at least one determination) came out at 0.74. For the same compound, in data set [4], the fu_HLM is reported as 0.721. Moreover, the “HLM_NADPH CLint” value in data set [5] (1 µM, single determination, Fig. 4a,d) was determined as 34.3 µL/min/mg. Further, the “NADPH_HLM_scaled_CLint,u” value in data set [5] (Fig. 4a,d) was found to be 44.9563 mL/min/kg. Besides, the fu_ratHH with rat hepatocytes is 0.794.

In the case of `O=C(O)Cc1ccccc1Nc1c(Cl)cccc1Cl` [Diclofenac], the Papp at 2 h, 10 µM in data set [1] is 118 ×10⁻⁶ cm/s. Also, the hepatocyte CLint at 1 µM in the data set “in vitro [2]” is 79.5 µL/min/1e6 cells. The CLint scaled at 1 µM in the data set “in vitro [2]” (HH_scaled_CLint,u) is 372 mL/min/kg; in [5] (setting [9]), 242 mL/min/kg; in [6] (human liver microsomes, pH 7.4), 51.8 mL/min/kg. For the same compound, in data set [3], the logD amounted to 1.07. In addition, in data set [4], the fu_HLM is given as 0.841. Also, in the data set with rat hepatocytes, the fu_ratHH was 0.539.

For `O=C(O)c1cc(-c2ccc(F)cc2F)ccc1O` [Diflunisal], the Papp at 2 h, 10 µM in data set [1] is 129 ×10⁻⁶ cm/s. Besides, in “in vitro [2]”, the hepatocyte CLint at 1 µM came out at 4.29 µL/min/1e6 cells. Further, the CLint scaled at 1 µM in “in vitro [2]” (HH_scaled_CLint,u) was 20.6 mL/min/kg; in data set [5] (setting [11]), 6.16 mL/min/kg; in [6] (microsomes, pH 7.4), 3.5 mL/min/kg. Also, the logD in data set [3] was 0.574. In [4], the fu_HLM is given as 0.81. Further, the microsomal CLint at 1 µM was 5.28 µL/min/mg in [5] (microsomes, pH 7.4) and 3 µL/min/mg in data set [6] (microsomes, pH 7.4). Moreover, in the data set on rat hepatocytes, the fu_ratHH is 0.525.

On to `O=C1Nc2ccc(Cl)cc2C(c2ccccc2Cl)=NC1O` (centres unmarked) [Lorazepam], for which the hepatocyte CLint in “in vitro [2]” (HH_CLint, 1 µM, single determination, Fig. 4a) amounted to 2.77 µL/min/1e6 cells. In “in vitro [2]” (HH_scaled_CLint,u, Fig. 4a), this compound came in with a CLint scaled of 9.63 mL/min/kg. For the same compound, the Papp in “in vitro [7]” came out at 67.2 ×10⁻⁶ cm/s. In addition, in data set [4], the fu_HLM is 0.724. Also, the intrinsic clearance (microsomal CLint) at 1 µM is 4.99 µL/min/mg in [5] (microsomes, pH 7.4, HLM_NADPH CLint, 1 µM, single determination, Fig. 4a,d) and 3 µL/min/mg in data set [6] (microsomes, pH 7.4, HLM_NADH CLint, 1 µM, single determination, Fig. 4a,d). Also, the CLint scaled at 1 µM in data set [5] (setting [11]) was 6.51 mL/min/kg; in data set [6] (microsomes, pH 7.4, NADH_HLM_scaled_CLint,u, Fig. 4a,d) it was 3.92 mL/min/kg. In addition, the fu_ratHH in the data set on rat hepatocytes is on record as 0.724.

`COCCc1ccc(OCC(O)CNC(C)C)cc1` (centres unmarked) [Metoprolol]: in [1], the Papp at 2 h, 10 µM was 19.5 ×10⁻⁶ cm/s. For the same compound, in the data set “in vitro [2]”, the hepatocyte CLint is 3.11 µL/min/1e6 cells. Also, in “in vitro [2]” (HH_scaled_CLint,u, Fig. 4a), the CLint scaled turned out to be 8.49 mL/min/kg. In [3], this compound gave a logD below -0.19. Also, the fu_HLM in data set [4] was 0.939. The microsomal CLint at 1 µM was determined as 4.05 µL/min/mg in data set [5] (setting [8]) and 3 µL/min/mg in data set [6] (setting [10]). For the same compound, the CLint scaled at 1 µM in data set [5] (setting [9]) was found to be 4.08 mL/min/kg; in data set [6] (human liver microsomes, pH 7.4), 3.02 mL/min/kg. In addition, the fu_ratHH with rat hepatocytes is given as 0.923.

For `C[C@]12C=CC(=O)C=C1CC[C@@H]1[C@@H]2[C@@H](O)C[C@@]2(C)[C@H]1CC[C@]2(O)C(=O)CO` [Prednisolone], the “Scaled HH CLint,u” value in the data set on human hepatocytes (HH) (HH, individual determinations 1-3, Fig. 1) is 12.4648 mL/min/kg and 14.0629 mL/min/kg. In addition, the CLint scaled in the data set “in vitro [2]” (Scaled HH CLint,u average, HH, average, Fig. 1) worked out at 13.7 mL/min/kg; in the data set “in vitro [2]” (Scaled HH CLint,u, HH, individual determinations 1-3, Fig. 1), 14.7 mL/min/kg. For the same compound, in data set [5] (NADPH-HLM average over HH average, Fig. 1), the “HLM/HH (ratio of scaled CLint,u)” value was 2.917. Also, the “Scaled HLM CLint,u” value in data set [5] (NADPH-HLM, individual determinations 1-3, Fig. 1) was found to be 38.7639 mL/min/kg. In addition, the CLint scaled at 1 µM in data set [5] (human liver microsomes + NADPH, pH 7.4, Scaled HLM CLint,u, NADPH-HLM, individual determinations 1-3, Fig. 1) came out at 40.8 mL/min/kg; in data set [5] (human liver microsomes, pH 7.4, Scaled HLM CLint,u average, NADPH-HLM, average, Fig. 1), 40.1 mL/min/kg.
